# Assay results as given in US11242365B2, “FOXM1-derived peptide, and vaccine including same” (OncoTherapy Science, Inc., priority 2015, dated 2022).
# “Also recorded” adds a separate entry of the source.
# Columns and labels:
# [1] = test system: target cells (C1R-A33) pulsed with peptide; assay: IFN-gamma ELISA of CTL lines (HLA-A*33:03); assay type: cell-based, human; details: CTL line against peptide-pulsed C1R-A33
# Description: CTLs were propagated using methods similar to those reported by Riddell et al. (Walter E A et al., N Engl J Med 1995, 333(16): 1038-44; Riddell S R et al., Nat Med 1996, 2(2): 216-23). The CTLs were cultured in 25 ml 5% ABS/AIM-V medium together with two types of Mitomycin C-treated human B lymphoblastoid cell lines (5×10^6 cells/25 ml medium each) and an anti-CD3 antibody (final concentration: 40 ng/ml). On the day after beginning of the culturing, IL-2 (final concentration: 120 IU/ml) was added to the culture. On days 5, 8 and 11, the medium was changed to a 5% ABS/AIM-V medium containing IL-2 (final concentration: 30 IU/ml) (Tanaka H et al., Br J Cancer 2001, 84(1): 94-9; Umano Y et al., Br J Cancer 2001, 84(8): 1052-7; Uchida N et al., Clin Cancer Res 2004, 10(24): 8577-86; Suda T et al., Cancer Sci 2006, 97(5): 411-9; Watanabe T et al., Cancer Sci 2005, 96(8): 498-506).
# (§1) Peptide-pulsed C1R-A33 (1×10^4 cells/well) was prepared as the target cell. The IFN-gamma ELISPOT assay and IFN-gamma ELISA were performed according to the assay kit manufacturer's manual.
# peptide-pulsed C1R-A01 = assay: In vitro CTL induction, IFN-gamma ELISPOT assay (HLA-A*01:01); assay type: cell-based, human; details: CD8 positive T cells of HLA-A*01:01-positive donors after three stimulations with peptide-pulsed DCs; peptide-pulsed vs non-pulsed C1R-A01
# Description: Monocyte-derived dendritic cells (DCs) were used as the antigen-presenting cell to induce a specific cytotoxic T lymphocyte (CTL) against peptides presented on human leukocyte antigens (HLAs). As already reported in literatures, DCs were generated in vitro (Nakahara S et al., Cancer Res 2003, 63(14): 4112-8). Specifically, peripheral-blood mononuclear cells (PBMCs) collected from healthy volunteers (HLA-A*01:01-positive) were seeded in plastic tissue culture dishes (Corning) to let the monocytes in the PBMCs adhere to the dishes. This was cultured in the presence of 1000 IU/ml granulocyte macrophage colony-stimulating factor (R&D System) and 1000 IU/ml interleukin (IL)-4 (R&D System) for seven days. An AIM-V medium (Invitrogen) containing 5% inactivated AB-type serum (ABS) was used as the medium. DCs that were induced to differentiate from monocytes using the cytokines were pulsed with 20 micro-g/ml of each synthesized peptide (37 degrees C., three hours). Peptide pulsing was carried out in an AIM-V medium containing 3 micro-g/ml beta 2-microglobulin. These peptide-pulsed DCs were inactivated by X-ray irradiation (20 Gy), mixed in a 1:20 ratio with autologous CD8 positive T cells obtained by using the CD8 Positive Isolation Kit (Invitrogen) (1.5×10^4 DCs and 3×10^5 CD8 positive T cells), and cultured in a 48-well plate (Corning). […]
# [2] = test system: target cells (C1R-A33) pulsed with peptide; assay: IFN-gamma ELISA of CTL clones established by limiting dilution (HLA-A*33:03); assay type: cell-based, human; details: CTL clone against peptide-pulsed C1R-A33
# Description: (§2) After induction of CTLs in vitro, the CTLs were seeded onto 96-well round-bottomed microplates (Nalge Nunc International) at 1 cell/well or 10 cells/well. The CTLs were cultured with two types of Mitomycin C-treated human B lymphoblastoid cell lines (1×10^4 cells/well each) in a total of 150 micro-l/well 5% ABS/AIM-V medium with an anti-CD3 antibody (final concentration: 30 ng/ml) and IL-2 (final concentration: 125 IU/ml). Ten days later, 50 micro-l 5% ABS/AIM-V medium containing 500 IU/ml IL-2 was added to the culture.
# as §1
# [3] = test system: COS7 cells expressing FOXM1 and HLA-A*33:03; assay: IFN-gamma production of CTL clone against target cells expressing FOXM1 and HLA-A*33:03; assay type: cell-based, African green monkey
# Excerpt: A cDNA encoding the FOXM1 or HLA-A*33:03 gene was amplified by PCR. The PCR-amplified product was each incorporated into an expression vector. Either or both of the FOXM1 gene-expressing vector and the HLA-A*33:03 gene-expressing vector were introduced into COS7 cells, which is a cell line negative for HLA, using Lipofectamine 2000 (Invitrogen). On the day after gene introduction, COS7 cells were detached and harvested using versene (Invitrogen), and used as the target cell for confirmation of IFN-gamma production (5×10^4 cells/well).
# IFN-gamma production of the FOXM1-A33-9-308 (SEQ ID NO: 2)-specific CTL clone against target cells expressing FOXM1 and HLA-A*33:03 was investigated. COS7 cells expressing both FOXM1 and HLA-A*33:03 were prepared as the target cell. COS7 cells expressing either one of FOXM1 and HLA-A*33:03 were prepared as the negative control cell. […] This clearly proves that FOXM1-A33-9-308 (SEQ ID NO: 2) is a peptide generated by antigen processing, and is presented on the cell surface with the HLA-A*33:03 molecule and recognized by CTLs.
# [4] = test system: target cells (C1R-A01) pulsed with peptide; assay: IFN-gamma ELISA of CTL clones established by limiting dilution (HLA-A*01:01); assay type: cell-based, human; details: CTL clone against peptide-pulsed C1R-A01; listed as FOXM1-A01-9-233
# Description: as §2
# Peptide-pulsed C1R-A01 (1×10^4 cells/well) was prepared as the target cell. The IFN-gamma ELISPOT assay and IFN-gamma ELISA were performed according to the assay kit manufacturer's manual.
# peptide-pulsed C1R-A33 = assay: In vitro CTL induction, IFN-gamma ELISPOT assay (HLA-A*33:03); assay type: cell-based, human; details: CD8 positive T cells of HLA-A*33:03-positive donors after three stimulations with peptide-pulsed DCs; peptide-pulsed vs non-pulsed C1R-A33
# Description: Monocyte-derived dendritic cells (DCs) were used as the antigen-presenting cell to induce a specific cytotoxic T lymphocyte (CTL) response against peptides presented on human leukocyte antigens (HLAs). As already reported in literatures, DCs were generated in vitro (Nakahara S et al., Cancer Res 2003, 63(14): 4112-8). Specifically, peripheral-blood mononuclear cells (PBMCs) collected from healthy volunteers (HLA-A*33:03-positive) with the Ficoll-Paque plus solution (Pharmacia) were seeded in plastic tissue culture dishes (Corning) to let the monocytes in the PBMCs adhere to the dishes. This was cultured in the presence of 1000 IU/ml granulocyte macrophage colony-stimulating factor (R&D System) and 1000 IU/ml interleukin (IL)-4 (R&D System) for seven days. An AIM-V medium (Invitrogen) containing 5% inactivated AB-type serum (ABS) was used as the medium. DCs that were induced to differentiate from monocytes using the cytokines were pulsed with 20 micro-g/ml of each synthesized peptide (37 degrees C., three hours). Peptide pulsing was carried out in an AIM-V medium containing 3 micro-g/ml beta 2-microglobulin. These peptide-pulsed DCs were inactivated by X-ray irradiation (20 Gy), mixed in a 1:20 ratio with autologous CD8 positive T cells obtained by positive selection using the CD8 Positive Isolation Kit (Invitrogen) (1.5×10^4 DCs and 3×10^5 CD8 positive T cells), and cultured in a 48-well plate (Corning). Each well contained 0.5 ml of the 5% ABS/AIM-V medium, and IL-7 (R&D System) was added thereto (final concentration: 10 ng/ml). Two days after the start of the culture, IL-2 (Novartis) was added (final concentration: 20 IU/ml). On day 7 and day 14 of culture, the CD8 positive T cells were further stimulated with peptide-pulsed DCs. The DCs were prepared at the time of use by the same method as above. […]
sequence,measurement,setting,value
WIEDHFPYFK (a peptide derived from FOXM1) [SEQ ID NO: 42],IFN-gamma production by the CTL line (ELISA),[1]; listed as FOXM1-A33-10-265,observed; also recorded: CTL lines that produce IFN-gamma in a peptide-specific manner were established
same,peptide-specific IFN-gamma production (ELISPOT),peptide-pulsed C1R-A01,not observed
AARDVNLPR (a peptide derived from FOXM1) [SEQ ID NO: 7],IFN-gamma production by the CTL line (ELISA),[1]; listed as FOXM1-A33-9-146,observed; also recorded: CTL lines that produce IFN-gamma in a peptide-specific manner were established
same,peptide-specific IFN-gamma production of CTL clone (ELISA),[2]; listed as FOXM1-A33-9-146,showed a peptide-specific IFN-gamma production
MSSELARHSK (a peptide derived from FOXM1) [SEQ ID NO: 39],IFN-gamma production by the CTL line (ELISA),[1]; listed as FOXM1-A33-10-391,observed; also recorded: CTL lines that produce IFN-gamma in a peptide-specific manner were established
WTIHPSANR (a peptide derived from FOXM1) [SEQ ID NO: 2],IFN-gamma production by the CTL line (ELISA),[1]; listed as FOXM1-A33-9-308,observed; also recorded: CTL lines that produce IFN-gamma in a peptide-specific manner were established
same,peptide-specific IFN-gamma production of CTL clone (ELISA),[2]; listed as FOXM1-A33-9-308,showed a peptide-specific IFN-gamma production
same,IFN-gamma production of peptide-specific CTL clone,[3]; COS7 cells expressing both FOXM1 and HLA-A*33:03,showed IFN-gamma production
same,IFN-gamma production of peptide-specific CTL clone,"[3]; negative control: COS7 cells expressing either one of FOXM1 and HLA-A*33:03, listed as FOXM1-A33-9-308",a significant IFN-gamma production was not observed; also recorded: a significant IFN-gamma production was not shown
VSERPPYSY (a peptide derived from FOXM1) [SEQ ID NO: 48],peptide-specific IFN-gamma production of CTL clone (ELISA),[4],showed a peptide-specific IFN-gamma production
SLSNIQWLR (a peptide derived from FOXM1) [SEQ ID NO: 1],peptide-specific IFN-gamma production (ELISPOT),peptide-pulsed C1R-A33,observed
KTELPLGARR (a peptide derived from FOXM1) [SEQ ID NO: 61],peptide-specific IFN-gamma production (ELISPOT),peptide-pulsed C1R-A01,observed
ASLMSSELAR (a peptide derived from FOXM1) [SEQ ID NO: 46],peptide-specific IFN-gamma production (ELISPOT),peptide-pulsed C1R-A33,observed
NLSLHDMFVR (a peptide derived from FOXM1) [SEQ ID NO: 25],peptide-specific IFN-gamma production (ELISPOT),peptide-pulsed C1R-A33,not observed
